# Test results taken from ChEMBL document CHEMBL1139089, “The evaluation and structure-activity relationships of 2-benzoylaminobenzoic esters and their analogues as anti-inflammatory and anti-platelet aggregation agents” (Bioorg Med Chem Lett, 2007).
# pIC50: −log10 of the molar value.
# Test: Antiinflammatory activity in neutrophil assessed as inhibition of fMLP induced elastase release
# Type: functional, cell-based
# Conditions: Homo sapiens
row,Structure (SMILES),pIC50
1,COC(=O)c1ccccc1NC(=O)c1ccccc1Cl,< 4.40
2,COC(=O)c1ccc(Cl)cc1NC(=O)c1ccccc1F,< 4.40
3,COC(=O)c1c(Cl)cccc1NC(=O)c1ccccc1Cl,< 4.40
4,COC(=O)c1ccccc1NC(=O)c1cccc(F)c1,< 4.40
5,COC(=O)c1ccc(Cl)cc1NC(=O)c1ccc(Br)cc1,< 4.40
6,COC(=O)c1ccccc1NC(=O)c1cccc(OC)c1,< 4.40
7,COC(=O)c1c(Cl)cccc1NC(=O)c1ccccc1Br,< 4.40
8,CCCOC(=O)c1ccc(Cl)cc1NC(=O)c1ccccc1OC,< 4.40
9,COC(=O)c1ccccc1NC(=O)c1ccc(F)cc1,< 4.40
10,COC(=O)c1ccc(Cl)cc1NC(=O)c1ccc(F)cc1,< 4.40
11,CCCOC(=O)c1ccc(Cl)cc1NC(=O)c1ccccc1Br,< 4.40
12,CCOC(=O)c1ccc(Cl)cc1NC(=O)c1ccccc1F,< 4.40
13,COC(=O)c1c(Cl)cccc1NC(=O)c1ccccc1C,< 4.40
14,COC(=O)c1c(Cl)cccc1NC(=O)c1ccccc1OC,< 4.40
15,CC(=O)Oc1ccccc1C(=O)O [ASPIRIN],< 4.40
16,COC(=O)c1ccc(Cl)cc1NC(=O)c1ccc(OC)cc1,< 4.40
17,CC(=O)c1ccccc1NC(=O)c1ccccc1F,< 4.40
18,COC(=O)c1ccc(Cl)cc1NC(=O)c1ccc(Cl)cc1,< 4.40
19,COC(=O)c1ccccc1NC(=O)c1ccccc1OC,< 4.40
20,COC(=O)c1ccccc1NC(=O)c1ccccc1F,< 4.40
21,COC(=O)c1ccccc1NC(=O)c1ccc(Br)cc1,< 4.40
22,COC(=O)c1ccccc1NC(=O)c1cccc(C)c1,4.74
23,COC(=O)c1ccccc1NC(=O)c1cccc(Br)c1,4.81
24,COC(=O)c1ccc(Cl)cc1NC(=O)c1ccccc1Br,< 4.40
25,CCCOC(=O)c1ccc(Cl)cc1NC(=O)c1ccccc1C,< 4.40

# Test: Anticoagulant activity assessed as inhibition of thrombin induced rabbit platelet aggregation
# Type: functional, cell-based
# Conditions: Oryctolagus cuniculus
row,Structure (SMILES),pIC50
1,COC(=O)c1ccccc1NC(=O)c1ccccc1Cl,< 4.00
2,COC(=O)c1ccc(Cl)cc1NC(=O)c1ccccc1F,< 4.00
3,COC(=O)c1c(Cl)cccc1NC(=O)c1ccccc1Cl,< 4.00
4,COC(=O)c1ccccc1NC(=O)c1cccc(F)c1,< 4.00
5,COC(=O)c1ccc(Cl)cc1NC(=O)c1ccc(Br)cc1,< 4.00
6,COC(=O)c1ccccc1NC(=O)c1cccc(OC)c1,< 4.00
7,COC(=O)c1c(Cl)cccc1NC(=O)c1ccccc1Br,< 4.00
8,CCCOC(=O)c1ccc(Cl)cc1NC(=O)c1ccccc1OC,< 4.00
9,COC(=O)c1ccccc1NC(=O)c1ccc(F)cc1,< 4.00
10,COC(=O)c1ccc(Cl)cc1NC(=O)c1ccc(F)cc1,< 4.00
11,CCCOC(=O)c1ccc(Cl)cc1NC(=O)c1ccccc1Br,< 4.00
12,CCOC(=O)c1ccc(Cl)cc1NC(=O)c1ccccc1F,< 4.00
13,COC(=O)c1c(Cl)cccc1NC(=O)c1ccccc1C,< 4.00
14,COC(=O)c1c(Cl)cccc1NC(=O)c1ccccc1OC,< 4.00
15,CC(=O)Oc1ccccc1C(=O)O [ASPIRIN],< 4.00
16,COC(=O)c1ccc(Cl)cc1NC(=O)c1ccc(OC)cc1,< 4.00
17,CC(=O)c1ccccc1NC(=O)c1ccccc1F,< 4.00
18,COC(=O)c1ccc(Cl)cc1NC(=O)c1ccc(Cl)cc1,< 4.00
19,COC(=O)c1ccccc1NC(=O)c1ccccc1OC,< 4.00
20,COC(=O)c1ccccc1NC(=O)c1ccccc1F,< 4.00
21,COC(=O)c1ccccc1NC(=O)c1ccc(Br)cc1,< 4.00
22,COC(=O)c1ccccc1NC(=O)c1cccc(C)c1,< 4.00
23,COC(=O)c1ccccc1NC(=O)c1cccc(Br)c1,< 4.00
24,COC(=O)c1ccc(Cl)cc1NC(=O)c1ccccc1Br,< 4.00
25,CCCOC(=O)c1ccc(Cl)cc1NC(=O)c1ccccc1C,< 4.00

# Test: Antiinflammatory activity in neutrophils assessed as inhibition of oxygen radical generation
# Type: functional, cell-based
# Conditions: Homo sapiens, Neutrophil
row,Structure (SMILES),pIC50
1,COC(=O)c1ccccc1NC(=O)c1ccccc1Cl,4.96
2,COC(=O)c1ccc(Cl)cc1NC(=O)c1ccccc1F,< 4.40
3,COC(=O)c1c(Cl)cccc1NC(=O)c1ccccc1Cl,< 4.40
4,COC(=O)c1ccccc1NC(=O)c1cccc(F)c1,4.98
5,COC(=O)c1ccc(Cl)cc1NC(=O)c1ccc(Br)cc1,< 4.40
6,COC(=O)c1ccccc1NC(=O)c1cccc(OC)c1,< 4.40
7,COC(=O)c1c(Cl)cccc1NC(=O)c1ccccc1Br,< 4.40
8,CCCOC(=O)c1ccc(Cl)cc1NC(=O)c1ccccc1OC,< 4.40
9,COC(=O)c1ccccc1NC(=O)c1ccc(F)cc1,< 4.40
10,COC(=O)c1ccc(Cl)cc1NC(=O)c1ccc(F)cc1,< 4.40
11,CCCOC(=O)c1ccc(Cl)cc1NC(=O)c1ccccc1Br,< 4.40
12,CCOC(=O)c1ccc(Cl)cc1NC(=O)c1ccccc1F,< 4.40
13,COC(=O)c1c(Cl)cccc1NC(=O)c1ccccc1C,< 4.40
14,COC(=O)c1c(Cl)cccc1NC(=O)c1ccccc1OC,< 4.40
15,CC(=O)Oc1ccccc1C(=O)O [ASPIRIN],< 4.40
16,COC(=O)c1ccc(Cl)cc1NC(=O)c1ccc(OC)cc1,< 4.40
17,CC(=O)c1ccccc1NC(=O)c1ccccc1F,4.62
18,COC(=O)c1ccc(Cl)cc1NC(=O)c1ccc(Cl)cc1,< 4.40
19,COC(=O)c1ccccc1NC(=O)c1ccccc1OC,5.13
20,COC(=O)c1ccccc1NC(=O)c1ccccc1F,6.19
21,COC(=O)c1ccccc1NC(=O)c1ccc(Br)cc1,< 4.40
22,COC(=O)c1ccccc1NC(=O)c1cccc(C)c1,< 4.40
23,COC(=O)c1ccccc1NC(=O)c1cccc(Br)c1,< 4.40
24,COC(=O)c1ccc(Cl)cc1NC(=O)c1ccccc1Br,< 4.40
25,CCCOC(=O)c1ccc(Cl)cc1NC(=O)c1ccccc1C,< 4.40

# Test: Anticoagulant activity assessed as inhibition of arachidonic acid induced rabbit platelet aggregation
# Type: functional, cell-based
# Conditions: Oryctolagus cuniculus
row,Structure (SMILES),pIC50
1,COC(=O)c1ccccc1NC(=O)c1ccccc1Cl,4.96
2,COC(=O)c1ccc(Cl)cc1NC(=O)c1ccccc1F,5.66
3,COC(=O)c1c(Cl)cccc1NC(=O)c1ccccc1Cl,4.09
4,COC(=O)c1ccccc1NC(=O)c1cccc(F)c1,< 4.00
5,COC(=O)c1ccc(Cl)cc1NC(=O)c1ccc(Br)cc1,< 4.00
6,COC(=O)c1ccccc1NC(=O)c1cccc(OC)c1,< 4.00
7,COC(=O)c1c(Cl)cccc1NC(=O)c1ccccc1Br,4.12
8,CCCOC(=O)c1ccc(Cl)cc1NC(=O)c1ccccc1OC,4.63
9,COC(=O)c1ccccc1NC(=O)c1ccc(F)cc1,< 4.00
10,COC(=O)c1ccc(Cl)cc1NC(=O)c1ccc(F)cc1,< 4.00
11,CCCOC(=O)c1ccc(Cl)cc1NC(=O)c1ccccc1Br,5.46
12,CCOC(=O)c1ccc(Cl)cc1NC(=O)c1ccccc1F,5.42
13,COC(=O)c1c(Cl)cccc1NC(=O)c1ccccc1C,< 4.00
14,COC(=O)c1c(Cl)cccc1NC(=O)c1ccccc1OC,4.21
15,CC(=O)Oc1ccccc1C(=O)O [ASPIRIN],3.82
16,COC(=O)c1ccc(Cl)cc1NC(=O)c1ccc(OC)cc1,< 4.00
17,COC(=O)c1ccc(Cl)cc1NC(=O)c1ccc(Cl)cc1,< 4.00
18,COC(=O)c1ccccc1NC(=O)c1ccccc1OC,5.10
19,COC(=O)c1ccccc1NC(=O)c1ccccc1F,4.97
20,COC(=O)c1ccccc1NC(=O)c1ccc(Br)cc1,< 4.00
21,COC(=O)c1ccccc1NC(=O)c1cccc(C)c1,< 4.00
22,COC(=O)c1ccccc1NC(=O)c1cccc(Br)c1,< 4.00
23,COC(=O)c1ccc(Cl)cc1NC(=O)c1ccccc1Br,5.59
24,CCCOC(=O)c1ccc(Cl)cc1NC(=O)c1ccccc1C,5.66
